Data from patent US4389403A, “1-Aroyl-2-phenylamino-2-imidazolines, drugs containing these compounds, and use thereof” (BASF Aktiengesellschaft, priority 1980, dated 1983).

Columns and labels:
[1] = test system: spontaneously hypertonic Okamoto rats (SH rats); experiment: Anti-hypertensive action, systolic blood pressure in spontaneously hypertonic rats, oral; assay type: in vivo, rat (male spontaneously hypertonic Okamoto rats); settings: oral administration; for ED20: Rattus norvegicus, dose lowering systolic pressure by 20%, 2 h after administration, read-out: Anti-hypertensive effect ED 20%; for Anti-hypertensive effect R.E. (relative effectiveness): relative to clonidine = 1.00
Experimental: The compounds are administered orally to groups of 4-8 male spontaneously hypertonic Okamoto rats (SH rats). Before, and two hours after, the administration, the systolic blood pressure is measured on the tail of the rat by means of a piezoelectric sensor.
The ED 20% is determined, from the dose-effect relationship and taking into account the values found with untreated control animals, as the dose which lowers the systolic pressure by 20%.

Acute toxicity (LD 50) = settings: rat, in vivo, po
Experimental: To determine the acute toxicity (LD 50), the compounds are administered orally to groups of 10 male Sprague-Dawley rats each weighing 150-320 g. The period of observation is 1 week.

[2] = German Published Application DAS No. 2,559,711; cited from earlier work
[3] = compared with clonidine; DAS No. 2,559,711; cited from earlier work
[4] = DAS No. 2,559,711; cited from earlier work
[5] = Narcosis-prolonging action in rats (chloral hydrate narcosis), sedative action; settings: rat, in vivo, po
Experimental: (§1) The time at which the righting reflex ceases to function is measured.
(§2) The reference substances were the conventional anti-hypertensive agents clonidine and benclonidine.
(§3) An undesired side-effect of clonidine is the central-suppressive (sedative) action, which was tested using, as a model, the prolongation of chloral hydrate narcosis.

[6] = test system: chloral hydrate narcosis in Sprague-Dawley rats; experiment: as above; settings: for Narcosis-prolonging effect R.E. (relative effectiveness): rats, oral administration, relative to clonidine = 1.00
Experimental: as §1, §2, §3

| SMILES | ED20 [1] | Anti-hypertensive effect R.E. (relative effectiveness) [1] | LD50 at 168 h (Acute toxicity (LD 50)) | blood pressure-reducing properties [2] | sedative side-effects [3] | absorption on oral administration [4] | ED50 [5] | selectivity ratio [5] | Narcosis-prolonging effect R.E. (relative effectiveness) [6] | ratio of sedative to anti-hypertensive doses compared with clonidine or benclonidine ([6]; compared with clonidine or benclonidine) |
| --- | --- | --- | --- | --- | --- | --- | --- | --- | --- | --- |
| O=C(c1ccccc1)N1CCN=C1Nc1c(Cl)cccc1Cl [Benclonidine, 1-benzoyl-2-(2',6'-dichlorophenylamino)-2-imidazoline] | 0.836 mg/kg | 0.10 | 68.1 mg/kg | exhibits blood pressure-reducing properties | lesser sedative side-effects than the parent compound clonidine | efficiently absorbed on oral administration | 0.948 mg/kg | 1.13 | 0.06 | – |
| Clc1cccc(Cl)c1NC1=NCCN1 [Clonidine, 2-(2',6'-dichlorophenylamino)-2-imidazoline] | 0.0829 mg/kg | 1.00 | 67.3 mg/kg | exhibits blood pressure-reducing properties | – | – | 0.0565 mg/kg | 0.68 | 1.00 | – |
| O=C(c1cccnc1)N1CCN=C1Nc1c(Cl)cccc1Cl [Example 1, 1-nicotinoyl-2-(2',6'-dichlorophenylamino)-2-imidazoline] | 0.0786 mg/kg | 1.05 | 80 mg/kg | – | – | – | 0.1 mg/kg | 1.27 | 0.57 | – |
| O=C(c1ccc2ccccc2n1)N1CCN=C1Nc1c(Cl)cccc1Cl [Example 45, 1-(quinolin-2-oyl)-2-(2',6'-dichlorophenylamino)-2-imidazoline] | 0.0856 mg/kg | 0.97 | 44 mg/kg | – | – | – | 0.464 mg/kg | 5.42 | 0.12 | substantially more advantageous |
